Experimental data: patent US12606556B2, “TYK-2 inhibitor” (BEIGENE, LTD., priority 2020, dated 2026)

Assays:
[1] = system: JAK1/p-STAT3(Tyr705) activated by IL-6 in TF-1 cell line; test: IL-6-JAK1/p-STAT3(Tyr705) inhibition cellular assay; type: cell-based; details: Homo sapiens, 0.5 h; TF-1 cells, IL-6 50 ng/ml, 30 min; read-out: Cellular assay pSTAT3/IL-6 IC50
Text: Assay D: IL-6-JAK1/p-STAT3(Tyr705) Inhibition IC50 Cellular Assay
To evaluate the inhibition effect of compounds disclosed herein on JAK1/p-STAT3(Tyr705) activated by IL-6 in TF-1 cell line, TF-1 cells were collected and washed 3 times by DPBS and resuspended in RPMI-1640 (phenol red free, Gibco, Cat #11835-030) with 0.1% FBS (Gibco, Cat #10099, Lot #1891605), without GM-CSF(R&D systems,Cat #215-GM-050), starved overnight. Cells were collected and resuspended in 1640 medium (phenol red free, Gibco, Cat #11835-030) with 0.1% BSA, and 12.5 μl/10×10^4/well cell suspension were seeded to the 96-well plate (Corning, Cat #3799). Then cells were treated with compounds diluted in 0.2% DMSO 1640 medium, at 37° C., 1 h. Dilution is done according to the following protocol: (1) make 500× compounds solution in DMSO from 5 mM by 4-fold dilution, total 8 doses were included; (3) make 2× compounds solution in assay medium by transferring 0.5 μl serial 500× stock solution into 125 μl assay medium; (4) 15 μl of 2× solution is added to cells and incubate at 37° C. for 1 h, the final compound conc. is 10000,2500,625,156.25,39,9.8,2.4 and 0.61 nM, respectively. After 1 h, cells were treated with 2.5 μl medium containing IL-6 at 37° C. (R&D systems, Cat #206-IL-010, final conc.50 ng/ml), 30 min. Following cells were lysed with 10 μl lysis buffer at RT, shaking on shaker for 1 h. 16 μL of cell lysate were transferred to a PE 384-well HTRF detection plate, and 4 μL of pre-mixed HTRF antibodies were added to each well. Covered the plate with a plate sealer, span 1000 rpm for 1 min, mix, Incubated overnight at room temperature. Read on BMG PheraStar with HTRF protocol (337 nm-665 nm-620 nm). IC 50 values were calculated by fitting dependent data to the four-parameter logistic model using dotmatics software. The assay was performed by using HTRF Phospho-STAT3(Tyr705) Cellular Assay Kit (Cisbio, Cat #62AT3PEG).

[2] = molecular target: T1, TYK2-JH2 (aa 575-869, in-house) protein (Homo sapiens, UniProt P29597); test: TYK2-JH2 biochemical assay (HTRF, blocking of TYK2-JH2 protein with its probe); type: binding; details: for IC50: HTRF, 0.2 nM recombinant TYK2-JH2, Probe 1; for Biochemical assay Selectivity fold (TYK2/JAK1): TYK2-JH2 vs JAK1-JH2 biochemical IC50
T1 construct: TYK2-JH2 (aa 575-869, in-house) protein; made in house
Method: Assay A: TYK2-JH2 Biochemical Assay
Compounds disclosed herein were tested for blocking of TYK2-JH2 (aa 575-869, in-house) protein with its probe in an assay based on Homogeneous Time Resolved Fluorescence.
Compound dilution is done according to the following protocol: (1) Prepare 500× compounds solution in DMSO from 500 uM by 5-fold dilution, total 10 doses were included; (2) Prepare 10× compounds solution in an assay buffer containing 20 mM HEPES, pH 7.5, 10 mM MgCl2, 0.005% BSA, 2 mM DTT, 0.015% Brij-35 by transferring 1 μl serial 500× stock solution into 49 μl assay buffer. 4 μl of 0.2 nM recombinant TYK2-JH2 protein was pre-incubated with 1 μl of 10×serial dilution of compounds at room temperature for 0.5 hour. Then 5 μl of 10 nM in-house Probe 1 (6-((3,5-dimethylphenyl)amino)-8-((4,26-dioxo-30-((3aS,4S,6aR)-2-oxohexahydro-1H-thieno[3,4-d]imidazol-4-yl)-7,10,13,16,19,22-hexaoxa-3,25-diazatriacontyl)amino)imidazo[1,2-b]pyridazine-3-carboxamide, KD=10 nM), 5 μl Mab Anti-6His Tb cryptate Gold (Cat: 61HI2TLB, Cisbio Bioassays) and Streptavidin-XL665(Cat: 610SAXLB, Cisobio Bioassays) mixture were added to plate and further incubated at room temperature for 1 hour. The HTRF signals (ex337 nm, em620 nm/665 nm) were read on BMG PHERAstar FS instrument. The inhibition percentage of TYK2 interaction with its probe in presence of increasing concentrations of compounds was calculated based on the ratio of fluorescence at […]. The IC50 for each compound was derived from fitting the data to the four-parameter logistic equation by Dotmatics.

[3] = system: JAK2, TYK2/p-STAT4 (Tyr693) activated by IL-12 in NK-92 cell line; test: IL-12-JAK2, TYK2/p-STAT4 (Tyr693) inhibition cellular assay; type: cell-based; details: for IC50: NK92, 0.5 h, NK-92 cells, IL-12 40 ng/ml, 30 min, read-out: Cellular assay pSTAT4/IL-12 IC50; for Cellular assay Selectivity fold (TYK2/JAK1): pSTAT4/IL-12 vs pSTAT3/IL-6 cellular IC50
Text: Assay C: IL-12-JAK2, TYK2/p-STAT4 (Tyr693) Inhibition IC50 Cellular Assay
To evaluate the inhibition effect of compounds disclosed herein on JAK2, TYK2/p-STAT4 (Tyr693) activated by IL-12 in NK-92 cell line, NK-92 cells were collected and washed 3 times by DPBS and resuspended in MEM-α(GIBCO,Cat #12561056) with 10% FBS (Gibco, Cat #10099, Lot #1891605), without IL-2 (R&D systems,Cat #202-IL), starved overnight. Cells were collected and resuspended in 1640 medium (phenol red free, Gibco, Cat #11835-030) with 0.1% BSA, and 12.5 μl/5×10^4/well cell suspension were seeded to the 96-well plate (Corning, Cat #3799). Then cells were treated with compounds diluted in 0.2% DMSO 1640 medium, at 37° C., 1 h. Dilution is done according to the following protocol: (1) make 500× compounds solution in DMSO from 5 mM by 4-fold dilution, total 8 doses were included; (3) make 2× compounds solution in assay medium by transferring 0.5 μl serial 500× stock solution into 125 μl assay medium; (4) 15 μl of 2× serial solution is added to cells and incubate at 37° C. for 1 h, the final compound conc. is 10000,2500,625,156.25,39,9.8,2.4 and 0.61 nM, respectively. After 1 h, cells were treated with 2.5 μl medium containing IL-12 at 37° C. (R&D systems, Cat #219-IL-005, final conc.40 ng/ml), 30 min. Following cells were lysed with 7.5 μl lysis buffer at RT, shaking on shaker for 1 h. 10 μL of cell lysate were transferred to a PE 384-well Proxiplate detection plate, and 5 μL of pre-mixed Alphascreen beads were added to each well. Covered the plate with a plate sealer, span 1000 rpm for 1 min, mix, Incubated overnight at room temperature. Read on BMG PheraStar with Alphascreen protocol. IC 50 values were calculated by fitting dependent data to the four-parameter logistic model using dotmatics software. The assay was performed by using AlphaLISA SureFire Ultra p-STAT4 (Tyr693) Assay Kit—High Volume (PE, Cat #ALSU-PST4-A-HV).

[4] = molecular target: T2, JAK1-JH2 protein (aa 561-860, in-house) (Homo sapiens, UniProt P23458); test: JAK1-JH2 biochemical assay (HTRF, blocking of JAK1-JH2 protein with its probe); type: binding; details: 1.17 nM recombinant JAK1-JH2, Probe 2
T2 construct: JAK1-JH2 protein (aa 561-860, in-house); made in house
Method: Assay B: JAK1-JH2 Biochemical Assay
Compounds disclosed herein were tested for blocking of JAK1-JH2 protein (aa 561-860, in-house) with its probe in an assay based on Homogeneous Time Resolved Fluorescence. Compound dilution is done according to the following protocol: (1) Prepare 500× compounds solution in DMSO from 500 uM by 5-fold dilution, total 10 doses were included; (2) Prepare 10× compounds solution in an assay buffer containing 20 mM HEPES, pH 7.5, 10 mM MgCl2, 0.005% BSA, 2 mM DTT, 0.015% Brij-35 by transferring 1 μl serial 500× stock solution into 49 μl assay buffer. 4 μL of 1.17 nM recombinant JAK1-JH2 protein was pre-incubated with 1 μl of 10×serial dilution of compounds at room temperature for 0.5 hour. […] The HTRF signals (ex337 nm, em620 nm/665 nm) were read on BMG PHERAstar FS instrument. The inhibition percentage of JAK1 interaction with its probe in presence of increasing concentrations of compounds was calculated based on the ratio of fluorescence at 615 nm to that at 665 nm. The IC50 for each compound was derived from fitting the data to the four-parameter logistic equation by Dotmatics.

T2 sequence (P23458 561-860): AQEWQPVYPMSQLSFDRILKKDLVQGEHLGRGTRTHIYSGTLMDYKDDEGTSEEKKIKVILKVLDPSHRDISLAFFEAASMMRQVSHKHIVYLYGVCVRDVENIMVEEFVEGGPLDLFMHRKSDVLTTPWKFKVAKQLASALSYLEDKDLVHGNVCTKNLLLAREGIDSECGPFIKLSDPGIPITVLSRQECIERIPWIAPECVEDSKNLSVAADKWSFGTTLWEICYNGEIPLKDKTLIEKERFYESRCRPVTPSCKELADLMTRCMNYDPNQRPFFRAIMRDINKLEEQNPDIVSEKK
T1 sequence (P29597 575-869): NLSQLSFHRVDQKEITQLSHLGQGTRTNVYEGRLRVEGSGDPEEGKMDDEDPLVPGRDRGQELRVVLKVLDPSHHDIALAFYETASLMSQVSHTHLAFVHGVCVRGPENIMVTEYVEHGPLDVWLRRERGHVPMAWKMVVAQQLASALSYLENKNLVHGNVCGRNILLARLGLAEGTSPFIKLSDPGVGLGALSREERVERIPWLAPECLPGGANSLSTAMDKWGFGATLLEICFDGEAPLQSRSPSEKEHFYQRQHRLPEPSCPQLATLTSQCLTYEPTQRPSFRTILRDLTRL

SMILES | IC50 [1] [nM] | IC50 [2] [nM] | Biochemical assay Selectivity fold (TYK2/JAK1) [2] [fold] | IC50 [3] [nM] | IC50 [4] [nM] | Cellular assay Selectivity fold (TYK2/JAK1) [3] [fold]
CNC(=O)c1nnc(NC(=O)C2CC2)cc1Nc1nc2ccc(N3CC(C)(C)C3)cn2n1 [Example E8, 6-(cyclopropanecar-boxamido)-4-((6-(3,3-dimethylazetidin-1-yl)-[1,2,4]triazolo[1,5-a]pyridin-2-yl)amino)-N-methylpyridazine-3-carboxamide] | > 10000 | 0.044 | 68 | 13.8 | 3 | >724
CNC(=O)c1nnc(NC(=O)C2CC2)cc1Nc1nc2ccc(N3CC(F)C3)cn2n1 [Example E9, 6-(cyclopropanecar-boxamido)-4-((6-(3-fluoroazetidin-1-yl)-[1,2,4]triazolo[1,5-a]pyridin-2-yl)amino)-N-methylpyridazine-3-carboxamide] | > 10000 | 0.097 | 25 | 19.6 | 2.4 | >510
CNC(=O)c1nnc(NC(=O)C2CC2)cc1Nc1nc2ccc(N3CC(F)(F)C3)cn2n1 [Example E10, 6-(cyclopropanecar-boxamido)-4-((6-(3,3-difluoroazetidin-1-yl)-[1,2,4]triazolo[1,5-a]pyridin-2-yl)amino)-N-methylpyridazine-3-carboxamide] | > 10000 | 0.15 | 20 | 47 | 3 | >212
CNC(=O)c1nnc(NC(=O)C2CC2)cc1Nc1nc2ccc(N3CCCC(N4CC(F)(F)C4)C3)cn2n1 (stereo not drawn) [Example E13, 6-(cyclopropanecar-boxamido)-4-((6-(3-(3,3-difluoroazetidin-1-yl)piperidin-1-yl)-[1,2,4]triazolo[1,5-a]pyridin-2-yl)amino)-N-methylpyridazine-3-carboxamide] | > 10000 | 0.047 | 55 | 15.9 | 2.6 | >629
CNC(=O)c1nnc(NC(=O)C2CC2)cc1Nc1nc2ccc(N3CC(N4CCCCC4)C3)cn2n1 [Example E14, 6-(cyclopropanecar-boxamido)-N-methyl-4-((6-(3-(piperidin-1-yl)azetidin-1-yl)-[1,2,4]triazolo [1,5-a]pyridin-2-yl)amino) pyridazine-3-carboxamide] | > 10000 | 0.11 | 16 | 42.6 | 1.8 | >234

Second part, led by results:

IC50 [1] [nM] | IC50 [2] [nM] | Biochemical assay Selectivity fold (TYK2/JAK1) [2] [fold] | IC50 [3] [nM] | IC50 [4] [nM] | SMILES | Cellular assay Selectivity fold (TYK2/JAK1) [3] [fold]
1640 | 0.056 | 10 | 15.4 | 0.56 | CNC(=O)c1nnc(NC(=O)C2CC2)cc1Nc1nc2ccc(N3CC(C)(N(C)C)C3)cn2n1 [Example E6] | 106
> 10000 | 0.084 | 9 | 47.8 | 0.78 | CNC(=O)c1nnc(NC(=O)C2CC2)cc1Nc1nc2ccc(N3CC(c4ncn(C)n4)C3)cn2n1 [Example E7, 6-(cyclopropanecar-boxamido)-N-methyl-4-((6-(3-(1-methyl-1H-1,2,4-triazol-3-yl)azetidin-1-yl)-[1,2,4]triazolo [1,5-a]pyridin-2-yl)amino)pyridazine-3-carboxamide] | >209
9930 | 0.024 | 71 | 6.31 | 1.7 | CNC(=O)c1nnc(NC(=O)C2CC2)cc1Nc1nc2ccc(N3CCC(N4CC(F)(F)C4)CC3)cn2n1 [Example E12, 6-(cyclopropanecar-boxamido)-4-((6-(4-(3,3-difluoroazetidin-1-yl)piperidin-1-yl)-[1,2,4]triazolo[1,5-a]pyridin-2-yl)amino)-N-methylpyridazine-3-carboxamide] | 1478
